Test results from US6632626B1, “Methods of assaying farnesyl transferase” (Board of Regents, The University of Texas System, priority 1990, dated 2003).
“Also recorded” adds a separate entry of the source. Residues, ends and D or L forms follow the SMILES beside them. No end group written: not given here.

Legend:
Assay type in all cases: biochemical
[1] = target: T1, rat brain farnesyl:protein transferase (Rattus norvegicus, UniProt Q02293+Q04631); experiment: Farnesyl:protein transferase inhibition: competition with p21H-ras for [3H]farnesyl from [3H]FPP, partially purified enzyme, TCA filter assay
T1 construct: Brains from 50 male Sprague-Dawley rats (100-150 g) were homogenized; from tissue
Procedure: (§1) Farnesyl:protein transferase activity was determined by measuring the amount of ^3H-farnesol transferred from ^3H]farnesyl pyrophosphate ([^3H]FPP) to p21^H-ras protein. The standard reaction mixture contained the following concentrations of components in a final volume of 25 μl: 50 mM Tris-chloride (pH 7.5), 50 μM ZnCl2, 20 mM KCl, 1 mM DTT, and 40 μM p21^H-ras. The mixture also contained 10 pmoles of [^3H]FPP (−30,000 dpm/pmol) and 1.8-3.5 μg of partially purified farnesyl:protein transferase (see below). After incubation for 1 h at 37° C. in 12×75-mm borosilicate tubes, the reaction was stopped by addition of 0.5 ml of 4% SDS and then 0.5 ml of 30% trichloroacetic acid (TCA).
The tubes were vortexed and left on ice for 45-60 min, after which 2 ml of a 6% TCA/2% SDS solution were added. […] The tubes were rinsed twice with 2 ml of the same solution, and each filter was washed five times with 2 ml of 6% TCA, dried, and counted in a scintillation counter. One unit of activity is defined as the amount of enzyme that transfers 1 pmol of [^3H]farnesol from [^3H]FPP into acid-precipitable p21^H-ras per hour under the standard conditions.
In the enzyme characterization experiments of FIGS. 1-4, 8, and 9, a partially purified fraction of farnesyl:protein transferase was used. […] The column was equilibrated with 50 mM Tris-chloride (pH 7.5) containing 1 mM DTT, 0.2 M NaCl, 20 μM ZnCl2, and 0.2% octyl-β-glucopyranoside and eluted with the same buffer at a flow rate of 15 ml/h.
This blank value was subtracted before calculating “% of control” values.

[2] = target: T2, purified farnesyl:protein transferase (Rattus norvegicus, UniProt Q02293+Q04631); experiment: Farnesylation of tetrapeptides by purified farnesyl:protein transferase, thin layer chromatography (substrate or pure inhibitor); settings: 3.6 μM tetrapeptide, purified enzyme (FIG. 15)
T2 construct: Brains from 50 male Sprague-Dawley rats (100-150 g) were homogenized; from tissue
Procedure: FIG. 15. […] The standard assay mixture (25 μl) contained 17 pmol [^3H]FPP (44,000 dpm/pmol), 5 ng of purified farnesyl:protein transferase, 0.2% (w/v) octyl-β-D-glucoside, and 3.6 μM of the indicated tetrapeptide. After incubation for 15 min at 37° C., the entire reaction mixture was subjected to thin layer chromatography for 4 h on Polygram SIL G sheet (Brinkmann Instruments) in a solvent system containing N-propanol/concentrated NH4OH/water (6:3:1). The TLC sheet was then dried, sprayed with ENHANCE Spray (Dupont-New England Nuclear) and exposed to Kodak X-OMAT AR Film XAR-5 for 25 h at −70° C.

[3] = target: T3, partially purified rat brain farnesyl:protein transferase (Rattus norvegicus, UniProt Q02293+Q04631); experiment: Substrate saturation of farnesyl:protein transferase (FIG. 2); settings: 1 h at 37° C.
T3 construct: Brains from 50 male Sprague-Dawley rats (100-150 g) were homogenized; from tissue
Procedure: FIG. 2. Substrate Saturation Curves for Farnesyl:Protein Transferase. Panel A, each standard reaction mixture contained 1.8 μg of partially purified farnesyl transferase, 40 μg p21^H-ras, [^3H]FPP (250,000 dpm); and varying amounts of unlabeled FPP to give the indicated final concentration of [^3H]FPP. […] For both panels, assays were carried out in duplicate for 1 h at 37° C., and TCA-precipitable radioactivity was measured as described in the Example.
as §1, with “After incubation for 1 h at 37° C. in 12×75-mm borosilicate tubes, the reaction was stopped by addition of 0.5 ml of 4% SDS and then 0.5 ml of 30% trichloroacetic acid (TCA).” left out
The tubes were vortexed and left on ice for 45-60 min, after which 2 ml of a 6% TCA/2% SDS solution were added. […] The tubes were rinsed twice with 2 ml of the same solution, and each filter was washed five times with 2 ml of 6% TCA, dried, and counted in a scintillation counter. […]

Row | pure inhibitor or substrate for farnesylation [2] | concentration giving half-maximal reaction velocity [3] | Molecule | inhibitory activity against farnesylation of p21H-ras (in words) [1]
1 | Farnesylation | – | CC[C@H](C)[C@H](NC(=O)[C@@H](NC(=O)[C@@H](N)CS)C(C)C)C(=O)N[C@@H](CCSC)C(=O)O [CVIM] (H-CVIM-OH; N-terminus and C-terminus assumed) | sufficient for competition
2 | – | approximately 0.5 μM | CC(C)=CCC/C(C)=C/CC/C(C)=C/COP(=O)(O)OP(=O)(O)O [[^3H]farnesyl pyrophosphate, [1-^3H]Farnesyl pyrophosphate] | –
3 | not a “pure” inhibitor | – | CFVM: related peptide, inhibitory through action as a substrate for farnesylation (CVFM) | –
4 | – | – | S-acetoamidated CVIM: CVIM alkylated on cysteine with iodoacetamide (C(acetamide)VIM) | appears to lose much of its inhibitory activity
5 | – | – | TKVCIM: hexapeptide with cysteine transposed from fourth to third position from the COOH-terminus | severely reduced inhibitory activity; also recorded: inhibitory activity of the peptide is reversed
